Tests used:
[1] = test system: chronic constriction injury (CCI) model; assay: Neuropathic pain, CCI model of the sciatic nerve, Von Frey; type: in vivo, B6 mice; details: 40 mg/kg by gavage, 1.5, 24 and 48 hours after administration, CCI mice, p<0.01
Text: A CCI model was used for realizing neuropathic pain. 6- to 8-week-old B6 mice were anesthetized, shaved from the roots of the left legs to parts about 1-2 mm higher than the horizontal lines of the tail root bones, and cut horizontally to obtain small wounds. Muscles were bluntly separated by hemostatic forceps, the sciatic nerves were found and picked out with elbow tweezers, and 4-0 chromium-containing catgut sutures soaked in sterile normal saline in advance were picked out with another elbow tweezer. Three catgut sutures were penetrated through the sciatic nerve of each mouse and ligatured in an upper part, a middle part and a lower part at a distance of 1 mm, respectively at an appropriate intensity enabling surrounding muscles to have small and transient twitches. […]
On day 7 after surgery, mechanical pain thresholds of the mice were detected by using Von Frey fibrils. […] Then, the mice were stimulated again at an adjacent lower intensity, and the intensity interval of first positive responses and negative responses was recorded. […]
The test mice were divided into three groups: an unmolded group, a molded solvent group and a molded administration group. 0.5% methylcellulose was used as a solvent, SP3101 was used as a drug and administered at a dose of 40 mg/kg according to the body weight each time, and the pain thresholds were detected 1.5, 24, 48 and 72 hours after administration.

[2] = test system: MHV-A59 virus-induced lung inflammation; assay: MHV-A59 virus-induced lung inflammation of mice; type: in vivo, C57BL/B6 mice; details: 20 mg/kg/day by gavage for 5 days
Method: As viral pneumonia of C57BL/B6 mice can be induced by nasal dropping of an MHV-A59 virus, the ability of SP3101 to inhibit virus-induced lung inflammation of mice is studied using such model.
An MHV-A59 virus strain was purchased from Suzhou Xishan Biotechnology Co., Ltd. at a PFU/ml of 1.4×10^7.
6-week-old mice were divided into 3 groups with 8 mice in each group. After anesthesia, the mice in a blank control group were administered with normal saline through the noses, and viral pneumonia models of the other two groups were constructed as follows: 10 μL of an MHV was injected into the nose of each mouse at a PFU of 1.4×10^5 with 5 μL into the left nostril and the right nostril, respectively, and about 3-6 hours later, the mice woke up. The mice in a model treatment group were administered with an SP3101 aqueous solution by gavage at a dose of 20 mg/kg body weight/day (mg/kg/day).
After continuous administration for 5 days, the mice were anesthetized and dissected 4 hours after the last administration, and the lungs were taken out, fixed with paraformaldehyde and stored for hematoxylin-eosin (HE) section staining.

[3] = test system: antioxidant transcription factor (Nrf2); assay: Nrf2 expression in RAW264.7 cells (protein hybridization); type: cell-based; details: different concentrations, 24 hours
Method: (§1) RAW264.7 cells were inoculated into two six-well plates and enabled to grow to a density of about 90%, and SP3101 and SP3102 of different concentrations were added, respectively. 24 hours later, the cells were lysed with a radio immunoprecipitation assay (RIPA) lysis buffer, and the expression of proteins was detected by protein hybridization.
(§2) Phosphorylation of serine at the 127th site of AMPK is used as an activation marker. […] It can be seen that the compounds, represented by the SP3101 and the SP3102, of the present invention are used as an AMPK agonist.

[4] = test system: autophagy related protein (LC3B); assay: LC3B expression in RAW264.7 cells (protein hybridization); type: cell-based; details: different concentrations, 24 hours
Method: as §1, §2

[5] = test system: cisplatin-induced hyperalgesia; assay: Cisplatin chemotherapy pain model; type: in vivo, B6 mice; details: 40 mg/kg/day by gavage, cisplatin 2.3 mg/kg/day i.p., mice, Von Frey 0.4 g and 1.0 g
Text: 20 12-week-old male B6 mice were selected and allowed to adapt to the environment for three days.
On DAY 1, basic mechanical pain thresholds were detected by using Von Frey fibrils, the mice with abnormal pain thresholds were abandoned (no abnormal mice were found in this batch), and the pain thresholds were basically about 1.4-2.0 g. According to the basic pain thresholds, a pain threshold of 0.4 g was used in this test, and a pain threshold of 1.0 g was used in subsequent detection Behaviors such as foot lifting and foot licking were identified as positive responses.
On DAYS 1-5, after the basic mechanical pain thresholds were detected, the mice were randomly divided into the following groups: (1) a model control group (n=10) and (2) an SP3101 group (n=10) administered by gavage at a dose of 40 mg/kg/day, where the mice in the model control group were administered with double distilled water by gavage, and the mice in the two groups were administered with cisplatin prepared with normal saline (2.3 mg/kg/day) by intraperitoneal injection 0.5 hour later.
On DAYS 6-10, the mice were only administered with SP3101 and water by gavage, and on DAY 7, the mechanical pain thresholds were detected.
On DAYS 11-15, the operations on DAYS 1-5 were repeated, and on DAY 15, the mechanical pain thresholds were detected. […]

[6] = test system: movement of the mice in an open field; assay: Sedation test, open field test (OFT); type: in vivo, B6 mice; details: single intraperitoneal injection 20 or 50 mg/kg, 2 hours after administration
Method: A total of 15 12-week-old male B6 mice were selected and allowed to adapt to the environment for three days. The mice were randomly divided into 3 groups including: (1) a blank control group (n=5), (2) a low-dose SP3101 group at a dose of 20 mg/kg (n=5) and (3) a high-dose SP3101 group at a dose of 50 mg/kg (n=5). The mice were administered by intraperitoneal injection at a single dose according to the groups, where the mice in the blank control group were administered with an equal volume of normal saline by intraperitoneal injection. 2 hours after the administration, the mice were traced by a video tracking and detection system in an open field test (OFT), followed by behavioral evaluation.

O=C1C(=O)c2nc(O)cc(C(=O)O)c2-c2[nH]ccc21 [SP3101, 4,5-dioxo-4,5-dihydro-1H-pyrrolo[2,3-f]quinone-7-hydroxy-9-carboxylic acid]
analgesic effect (Von Frey mechanical pain threshold) [1]: obvious analgesic effect
inhibition of virus-induced lung inflammation (HE sections) [2]: obvious effect of inhibiting virus-induced lung inflammation
expression of antioxidant transcription factor (Nrf2) [3]: increased in a dose-dependent manner
expression of autophagy related protein (LC3B) [4]: also increased
alleviation of cisplatin-induced hyperalgesia [5]: obvious effect of alleviating
movement of the mice in an open field (sedative effect) [6]: obviously reduces movement of the mice in an open field
